Article PMC11153306, “Unraveling the efficacy of verbascoside in thwarting MRSA pathogenicity by targeting sortase A” (Applied Microbiology and Biotechnology, 2024)

Target: T1, sortase A (SrtA) (Staphylococcus aureus, UniProt Q2FV99)
T1 construct: 6 × His recombinant SrtA from pET28a::srtA
Assay: intrinsic fluorescence quenching (Stern-Volmer, KA); supported by FRET inhibition of purified SrtA (IC50 […]) and reversibility by dilution
Format: binding
Conditions: read-out: intrinsic fluorescence quenching (Stern-Volmer, KA); supported by FRET inhibitio (converted)
Excerpt: This indicated a significant interaction between verbascoside and SrtA

T1 sequence (Q2FV99 whole entry): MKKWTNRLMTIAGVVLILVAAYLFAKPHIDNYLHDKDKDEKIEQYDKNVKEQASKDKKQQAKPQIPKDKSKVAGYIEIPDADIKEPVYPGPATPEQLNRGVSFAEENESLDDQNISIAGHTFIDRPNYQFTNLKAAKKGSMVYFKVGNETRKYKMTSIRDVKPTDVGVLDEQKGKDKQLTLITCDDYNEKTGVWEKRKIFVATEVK

C[C@@H]1O[C@@H](O[C@@H]2[C@@H](O)[C@H](OCCc3ccc(O)c(O)c3)O[C@H](CO)[C@H]2OC(=O)/C=C/c2ccc(O)c(O)c2)[C@H](O)[C@H](O)[C@H]1O [verbascoside]
Kd: 41 µM
